Assays:
MEK = experiment: CEER phospho MEK level; format: cell-based, human; conditions: Lim1215 cells, 24 h, assay range 1.02-100
From the text: (§1) These were complemented by ErbB heterodimerization assays using CEER.

AKT = experiment: CEER phospho AKT level; conditions: Lim1215 cells, 24 h, assay range 1.02-40
ERK = experiment: CEER phospho ERK level; format: cell-based, human; conditions: Lim1215 cells, 24 h, assay range 1.02-100
RSK = experiment: CEER phospho RSK level; format: cell-based, human; conditions: Lim1215 cells, 24 h, assay range 2.56-100
From the text: as §1

HER2 [1] = experiment: CEER total HER2 expression level; format: cell-based, human; conditions: Lim1215 cells, 24 h, assay range 390-25000
From the text: as §1

HER2 [2] = biological target: T1, HER2 (Homo sapiens, UniProt P04626); experiment: CEER phospho HER2 activation level; format: cell-based; conditions: Lim1215 cells, 24 h, assay range 20.48-2000
T1 construct: endogenous in cells; host or cells: Lim1215 human colon cancer cells
From the text: as §1

HER3:PI3K = experiment: CEER HER3:PI3K complex assay; format: cell-based, human; conditions: Lim1215 cells; 24 h; series 4 (FIG. 4; DMSO 24.7); assay range 3.9-500
From the text: The assays described herein can be used to detect and quantitate the amount of PI3K complex and the amount of activation and/or phosphorylation of a PI3K complex. The PI3K complex comprises: (i) a dimerized receptor tyrosine kinase pair; and (ii) a PI3K p85 subunit and a PI3K p110 (e.g., α or β) subunit. In particular embodiments, the assay comprises three antibodies: (1) a capture antibody specific for either the PI3K p85 or the PI3K p110 subunit; (2) a first detection antibody specific for a first member of the dimerized receptor tyrosine kinase pair or a PI3K subunit, wherein the first detection antibody is specific for a different domain than the capture antibody and wherein the PI3K subunit may be activated; and (3) a second detection antibody specific for a second member of the dimer pair or a PI3K subunit.
as §1

HER3 [3] = experiment: CEER total HER3 expression level; format: cell-based, human; conditions: Lim1215 cells, 24 h, assay range 390-25000
From the text: as §1

HER2:HER3 = experiment: CEER ErbB heterodimerization assay, HER2:HER3 dimer; format: cell-based, human; conditions: Lim1215 cells, 24 h, assay range 50-1500
From the text: (§2) In certain aspects, the present invention provides an assay for detecting and/or quantitating homo- or heterodimerization of receptor tyrosine kinases including, but not limited to, HER1:HER2 dimers, HER1:HER3 dimers, HER2:HER3 dimers, HER2:HER2 dimers, HER2:HER4 dimers, p95HER2:HER3 dimers, p95HER2:HER2 dimers, and the like. A homodimer is formed by two identical molecules such as HER2:HER2 in a process called homodimerization, whereas a heterodimer is formed by two different macromolecules such as HER1:HER3 or HER2:HER3 in a process called heterodimerization. In this aspect, the assay comprises three antibodies: (1) a capture antibody specific for one member of the dimer pair; (2) a first detection antibody specific for a first member of the dimer pair, wherein the first detection antibody is specific for a different domain than the capture antibody; and a (3) a second detection antibody specific for a second member of the dimer pair.
(§3) A first detection antibody is then used to bind to a different portion (e.g., epitope) on HER2. […] The first detection antibody comprises one or a plurality of first activation state-independent antibodies specific for one member of the dimer, whereas a second detection antibody or a plurality of second detection antibodies is specific for the other member of the dimer. […] Thereafter, the plurality of detectable captured analytes are incubated with a second member of the signal amplification pair, e.g., tyramide or tyramide biotin to generate an amplified signal, which is then detected.
as §1

HER3 [4] = experiment: CEER phospho HER3 activation level; format: cell-based, human; conditions: Lim1215 cells, 24 h, assay range 12.8-1500
From the text: as §1

HER1 [5] = experiment: CEER total HER1 expression level; format: cell-based, human; conditions: Lim1215 cells, 24 h, assay range 7.8-500
From the text: as §1

HER1:HER2 = experiment: CEER ErbB heterodimerization assay, HER1:HER2 dimer; format: cell-based, human; conditions: Lim1215 cells, 24 h, assay range 7.8-1000
From the text: as §2, §3, §1

HER1:HER3 = experiment: CEER ErbB heterodimerization assay, HER1:HER3 dimer; format: cell-based, human; conditions: Lim1215 cells, 24 h, assay range 200-20000
From the text: as §2, §3, §1

HER1 [6] = biological target: T2, HER1 (Homo sapiens, UniProt P00533); experiment: CEER phospho HER1 activation level; format: cell-based; conditions: Lim1215 cells; 24 h; series 4 (FIG. 4; DMSO 4.7); assay range 0.14-10.67
T2 construct: endogenous in cells; host or cells: Lim1215 human colon cancer cells
From the text: as §1

[7] = series 3 (FIG. 3; control 16.3)
[8] = series 3 (FIG. 3; control 11.4)
[9] = series 3 (FIG. 3; control […] >ULOQ)
[10] = series 3 (FIG. 3; control 3025)
[11] = series 3 (FIG. 3; control 4282)
[12] = series 3 (FIG. 3; control 211.8)

T1 sequence (P04626 23-1255): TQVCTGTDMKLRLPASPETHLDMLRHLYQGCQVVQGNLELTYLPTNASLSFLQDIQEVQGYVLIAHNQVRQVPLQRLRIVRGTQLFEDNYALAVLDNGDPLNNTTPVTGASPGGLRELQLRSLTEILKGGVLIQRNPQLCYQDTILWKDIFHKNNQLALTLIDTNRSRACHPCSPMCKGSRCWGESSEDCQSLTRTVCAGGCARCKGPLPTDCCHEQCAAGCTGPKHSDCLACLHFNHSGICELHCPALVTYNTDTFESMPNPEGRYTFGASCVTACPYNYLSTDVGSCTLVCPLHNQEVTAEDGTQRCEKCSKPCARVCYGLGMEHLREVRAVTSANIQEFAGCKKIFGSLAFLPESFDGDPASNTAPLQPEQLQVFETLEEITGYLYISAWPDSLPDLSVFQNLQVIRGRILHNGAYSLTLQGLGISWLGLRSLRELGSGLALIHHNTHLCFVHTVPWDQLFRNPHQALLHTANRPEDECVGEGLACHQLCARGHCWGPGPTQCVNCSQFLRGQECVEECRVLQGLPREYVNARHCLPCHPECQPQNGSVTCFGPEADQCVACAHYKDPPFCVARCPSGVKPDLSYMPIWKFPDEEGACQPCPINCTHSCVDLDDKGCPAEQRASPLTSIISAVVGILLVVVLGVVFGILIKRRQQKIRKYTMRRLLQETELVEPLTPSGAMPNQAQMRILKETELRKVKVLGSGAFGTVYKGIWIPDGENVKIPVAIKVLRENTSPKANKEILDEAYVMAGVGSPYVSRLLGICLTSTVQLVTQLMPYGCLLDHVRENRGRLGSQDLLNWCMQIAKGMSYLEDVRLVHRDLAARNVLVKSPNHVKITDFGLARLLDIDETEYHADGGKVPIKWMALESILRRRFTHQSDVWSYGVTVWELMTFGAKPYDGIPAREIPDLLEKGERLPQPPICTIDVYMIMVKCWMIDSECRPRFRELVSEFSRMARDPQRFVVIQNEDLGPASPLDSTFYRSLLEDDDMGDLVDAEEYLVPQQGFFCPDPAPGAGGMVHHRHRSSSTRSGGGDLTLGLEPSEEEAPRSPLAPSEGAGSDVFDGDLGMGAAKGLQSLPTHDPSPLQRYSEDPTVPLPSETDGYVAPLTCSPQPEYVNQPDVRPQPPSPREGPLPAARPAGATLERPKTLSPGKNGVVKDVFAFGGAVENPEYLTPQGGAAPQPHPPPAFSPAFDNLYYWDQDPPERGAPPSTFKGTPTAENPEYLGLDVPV
T2 sequence (P00533 25-1210): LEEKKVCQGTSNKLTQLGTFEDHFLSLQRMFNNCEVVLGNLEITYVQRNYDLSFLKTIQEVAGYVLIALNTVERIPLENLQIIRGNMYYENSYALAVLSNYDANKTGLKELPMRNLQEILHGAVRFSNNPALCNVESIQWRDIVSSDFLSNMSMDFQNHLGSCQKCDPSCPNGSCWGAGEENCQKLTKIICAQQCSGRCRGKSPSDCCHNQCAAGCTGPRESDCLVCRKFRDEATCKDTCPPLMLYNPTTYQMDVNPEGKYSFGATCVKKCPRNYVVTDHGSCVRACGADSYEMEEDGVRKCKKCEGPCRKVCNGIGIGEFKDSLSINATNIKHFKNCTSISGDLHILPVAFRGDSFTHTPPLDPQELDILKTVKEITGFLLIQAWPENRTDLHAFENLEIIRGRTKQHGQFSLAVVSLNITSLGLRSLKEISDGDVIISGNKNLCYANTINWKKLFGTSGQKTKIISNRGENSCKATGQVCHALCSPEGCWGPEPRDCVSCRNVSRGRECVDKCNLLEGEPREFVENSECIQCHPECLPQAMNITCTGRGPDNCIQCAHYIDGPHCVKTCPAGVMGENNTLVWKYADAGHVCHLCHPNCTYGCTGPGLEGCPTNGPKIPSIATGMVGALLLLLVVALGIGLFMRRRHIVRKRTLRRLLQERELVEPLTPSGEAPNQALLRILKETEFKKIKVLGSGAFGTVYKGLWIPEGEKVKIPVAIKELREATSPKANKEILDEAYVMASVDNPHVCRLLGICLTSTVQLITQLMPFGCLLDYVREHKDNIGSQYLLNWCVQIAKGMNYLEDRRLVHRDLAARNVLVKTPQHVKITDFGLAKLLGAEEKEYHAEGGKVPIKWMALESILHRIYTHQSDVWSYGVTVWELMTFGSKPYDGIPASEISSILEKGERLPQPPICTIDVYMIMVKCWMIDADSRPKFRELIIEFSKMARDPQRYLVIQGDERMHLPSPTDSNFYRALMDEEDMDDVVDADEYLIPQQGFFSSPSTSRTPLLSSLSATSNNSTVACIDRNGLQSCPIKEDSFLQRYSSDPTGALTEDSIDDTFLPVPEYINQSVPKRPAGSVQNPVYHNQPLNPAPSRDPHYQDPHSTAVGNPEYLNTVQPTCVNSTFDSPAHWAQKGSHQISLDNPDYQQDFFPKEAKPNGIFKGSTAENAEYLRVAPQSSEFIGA

COc1cc2ncnc(Nc3ccc(F)c(Cl)c3)c2cc1OCCCN1CCOCC1 [Gefitinib, gefitinib]
Phos MEK (10 ug) (MEK; [7]): 2.9 pg/µg
Phos MEK (10 ug) (MEK; series 4 (FIG. 4; DMSO 9.8)): 1.7 pg/µg
Phos AKT (10 ug) (AKT; [8]): 0.64 pg/µg
Phos ERK (10 ug) (ERK; series 3 (FIG. 3; control 5.3)): 1.1 pg/µg
Phos ERK (10 ug) (ERK; series 4 (FIG. 4; DMSO 3.3)): 0.68 pg/µg
Phos RSK (10 ug) (RSK; [9]): 6.3 pg/µg
Phos RSK (10 ug) (RSK; series 4 (FIG. 4; DMSO 91.4)): 4.7 pg/µg

CS(=O)(=O)CCNCc1ccc(-c2ccc3ncnc(Nc4ccc(OCc5cccc(F)c5)c(Cl)c4)c3c2)o1 [Lapatinib, lapatinib]
Total HER2 (0.2 ug) (HER2 [1]; [10]): 5391
Total HER2 (0.2 ug) (HER2 [1]; series 4 (FIG. 4; DMSO 2581)): 4135
Phos MEK (10 ug) (MEK; [7]): 3.1 pg/µg
Phos MEK (10 ug) (MEK; series 4 (FIG. 4; DMSO 9.8)): 1.4 pg/µg
Phos HER2 (2.5 ug) (HER2 [2]; series 3 (FIG. 3; control 2068 >ULOQ)): 49
Phos HER2 (2.5 ug) (HER2 [2]; series 4 (FIG. 4; DMSO 447)): 15
HER3:PI3K (4 ug) (HER3:PI3K): 23.0
Total HER3 (0.2 ug) (HER3 [3]; [11]): 5711
Total HER3 (0.2 ug) (HER3 [3]; series 4 (FIG. 4; DMSO 3388)): 6907
Phos AKT (10 ug) (AKT; [8]): 0.66 pg/µg
ErbB Dimer Formation HER2:HER3 (2 ug) (HER2:HER3; [12]): 493.6
ErbB Dimer Formation HER2:HER3 (2 ug) (HER2:HER3; series 4 (FIG. 4; DMSO 172.5)): 301.3
Phos ERK (10 ug) (ERK; series 3 (FIG. 3; control 5.3)): 0.84 pg/µg
Phos ERK (10 ug) (ERK; series 4 (FIG. 4; DMSO 3.3)): 0.56 pg/µg
Phos HER3 (10 ug) (HER3 [4]; series 3 (FIG. 3; control 573)): 677
Phos RSK (10 ug) (RSK; [9]): 3.9 pg/µg
Phos RSK (10 ug) (RSK; series 4 (FIG. 4; DMSO 91.4)): 3.3 pg/µg

O=C(NC[C@H](O)CO)c1ccncc1Nc1ccc(I)cc1F [iMEK AS703026, AS703026]
Total HER2 (0.2 ug) (HER2 [1]; series 4 (FIG. 4; DMSO 2581)): 2546
Phos MEK (10 ug) (MEK; series 4 (FIG. 4; DMSO 9.8)): 74.9 pg/µg
Phos HER2 (2.5 ug) (HER2 [2]; series 4 (FIG. 4; DMSO 447)): 480
HER3:PI3K (4 ug) (HER3:PI3K): 27.8
Total HER1 (1 ug) (HER1 [5]; series 4 (FIG. 4; DMSO 96.8)): 69.9
Total HER3 (0.2 ug) (HER3 [3]; series 4 (FIG. 4; DMSO 3388)): 3317
ErbB Dimer Formation HER1:HER2 (2 ug) (HER1:HER2; series 4 (FIG. 4; DMSO 42.7)): 52.1
ErbB Dimer Formation HER2:HER3 (2 ug) (HER2:HER3; series 4 (FIG. 4; DMSO 172.5)): 313.2
Phos ERK (10 ug) (ERK; series 4 (FIG. 4; DMSO 3.3)): 1.1 pg/µg
Phos HER3 (10 ug) (HER3 [4]; series 4 (FIG. 4; DMSO 204)): 300
Phos RSK (10 ug) (RSK; series 4 (FIG. 4; DMSO 91.4)): 35.9 pg/µg
ErbB Dimer Formation HER1:HER3 (0.5 ug) (HER1:HER3; series 4 (FIG. 4; DMSO 186)): 226
Phos HER1 (10 ug) (HER1 [6]): 2.9

pertuzumab
Total HER2 (0.2 ug) (HER2 [1]; series 2 (FIG. 2; Control 4212)): 7200
Total HER2 (0.2 ug) (HER2 [1]; [10]): 5568
Phos MEK (10 ug) (MEK; series 2 (FIG. 2; Control 38.0)): 17.1 pg/µg
Phos MEK (10 ug) (MEK; [7]): 8.6 pg/µg
Total HER1 (1 ug) (HER1 [5]; series 2 (FIG. 2; Control 171.4)): 198.5
Total HER1 (1 ug) (HER1 [5]; series 3 (FIG. 3; control 137.2)): 115.1
Total HER3 (0.2 ug) (HER3 [3]; series 2 (FIG. 2; Control 7757)): 10665
Total HER3 (0.2 ug) (HER3 [3]; [11]): 5501
ErbB Dimer Formation HER1:HER2 (2 ug) (HER1:HER2; series 2 (FIG. 2; Control […])): 161.7
ErbB Dimer Formation HER1:HER2 (2 ug) (HER1:HER2; series 3 (FIG. 3; control 46.0)): 64.8
Phos AKT (10 ug) (AKT; series 2 (FIG. 2; Control 9.6)): 6.1 pg/µg
Phos AKT (10 ug) (AKT; [8]): 1.2 pg/µg
ErbB Dimer Formation HER2:HER3 (2 ug) (HER2:HER3; series 2 (FIG. 2; Control 250.9)): 704.6
ErbB Dimer Formation HER2:HER3 (2 ug) (HER2:HER3; [12]): 472.1
Phos ERK (10 ug) (ERK; series 2 (FIG. 2; Control 5.7)): 5.6 pg/µg
Phos ERK (10 ug) (ERK; series 3 (FIG. 3; control 5.3)): 2.2 pg/µg
Phos HER3 (10 ug) (HER3 [4]; series 2 (FIG. 2; Control 236)): 313
Phos HER3 (10 ug) (HER3 [4]; series 3 (FIG. 3; control 573)): 826
Phos RSK (10 ug) (RSK; series 2 (FIG. 2; Control 289 >ULOQ)): 199 pg/µg
Phos RSK (10 ug) (RSK; [9]): 92.1 pg/µg
ErbB Dimer Formation HER1:HER3 (0.5 ug) (HER1:HER3; series 2 (FIG. 2; Control 387)): 458
ErbB Dimer Formation HER1:HER3 (0.5 ug) (HER1:HER3; series 3 (FIG. 3; control 398)): 412
